# Target: Serine/threonine-protein kinase 26 (Homo sapiens) (UniProt Q9P289)
row,ΔTm [°C],Compound
1,-0.3,COC1=C2C[C@@H](C)C[C@H](OC)[C@H](O)[C@@H](C)/C=C(\C)[C@H](OC(N)=O)[C@@H](OC)/C=C\C=C(/C)C(=O)NC(=CC1=O)C2=O
2,-0.5,CCOc1cc(/C=C(\C#N)C(N)=O)cc(CSc2ccccc2)c1O
3,-0.6,Ic1cccc(CSc2nnc(-c3ccncc3)o2)c1

# Target: Serine/threonine-protein kinase 26 (Homo sapiens) (UniProt Q9P289)
# Remark: another data set of the same source
row,ΔTm [°C],Compound
1,-0.4,COC1=C2C[C@@H](C)C[C@H](OC)[C@H](O)[C@@H](C)/C=C(\C)[C@H](OC(N)=O)[C@@H](OC)/C=C\C=C(/C)C(=O)NC(=CC1=O)C2=O
2,-0.3,CCOc1cc(/C=C(\C#N)C(N)=O)cc(CSc2ccccc2)c1O
3,-0.5,Ic1cccc(CSc2nnc(-c3ccncc3)o2)c1

# Target: Serine/threonine-protein kinase OSR1 (Homo sapiens) (UniProt O95747)
# Sequence (O95747 2-527 limits assumed): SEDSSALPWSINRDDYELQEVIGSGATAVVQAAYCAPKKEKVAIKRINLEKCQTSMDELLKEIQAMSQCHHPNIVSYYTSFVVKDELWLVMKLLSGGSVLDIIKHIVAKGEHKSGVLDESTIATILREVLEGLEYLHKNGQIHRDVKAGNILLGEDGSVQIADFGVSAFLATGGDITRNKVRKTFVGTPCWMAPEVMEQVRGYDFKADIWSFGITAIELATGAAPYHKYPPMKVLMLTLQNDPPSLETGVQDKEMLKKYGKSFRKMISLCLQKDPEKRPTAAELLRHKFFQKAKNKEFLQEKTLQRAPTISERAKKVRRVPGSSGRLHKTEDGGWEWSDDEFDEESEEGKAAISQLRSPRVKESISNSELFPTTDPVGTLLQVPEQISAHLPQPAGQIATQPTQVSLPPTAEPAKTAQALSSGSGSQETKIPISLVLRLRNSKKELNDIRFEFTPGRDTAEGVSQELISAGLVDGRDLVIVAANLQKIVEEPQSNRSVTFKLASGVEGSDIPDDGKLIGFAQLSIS
row,ΔTm [°C],Compound
1,0.8,COC1=C2C[C@@H](C)C[C@H](OC)[C@H](O)[C@@H](C)/C=C(\C)[C@H](OC(N)=O)[C@@H](OC)/C=C\C=C(/C)C(=O)NC(=CC1=O)C2=O
2,0.9,CCOc1cc(/C=C(\C#N)C(N)=O)cc(CSc2ccccc2)c1O
3,-0.7,Ic1cccc(CSc2nnc(-c3ccncc3)o2)c1

# Target: Mitogen-activated protein kinase 11 (Homo sapiens, UniProt Q15759)
# Sequence (Q15759 whole entry): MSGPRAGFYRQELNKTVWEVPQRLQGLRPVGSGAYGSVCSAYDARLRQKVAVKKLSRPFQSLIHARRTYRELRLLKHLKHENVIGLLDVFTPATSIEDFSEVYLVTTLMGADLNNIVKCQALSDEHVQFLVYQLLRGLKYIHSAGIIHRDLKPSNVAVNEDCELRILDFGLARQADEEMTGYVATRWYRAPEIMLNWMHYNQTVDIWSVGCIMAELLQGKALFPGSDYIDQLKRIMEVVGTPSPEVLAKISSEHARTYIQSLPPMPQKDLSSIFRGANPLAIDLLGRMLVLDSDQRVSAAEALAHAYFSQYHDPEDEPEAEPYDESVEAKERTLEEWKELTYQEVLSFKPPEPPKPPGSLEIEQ
row,ΔTm [°C],Compound
1,-0.2,COC1=C2C[C@@H](C)C[C@H](OC)[C@H](O)[C@@H](C)/C=C(\C)[C@H](OC(N)=O)[C@@H](OC)/C=C\C=C(/C)C(=O)NC(=CC1=O)C2=O
2,-0.3,CCOc1cc(/C=C(\C#N)C(N)=O)cc(CSc2ccccc2)c1O
3,-0.4,Ic1cccc(CSc2nnc(-c3ccncc3)o2)c1

# Target: Serine/threonine-protein kinase PAK 5 (Homo sapiens) (UniProt Q9P286)
# Sequence (Q9P286 whole entry, looked up): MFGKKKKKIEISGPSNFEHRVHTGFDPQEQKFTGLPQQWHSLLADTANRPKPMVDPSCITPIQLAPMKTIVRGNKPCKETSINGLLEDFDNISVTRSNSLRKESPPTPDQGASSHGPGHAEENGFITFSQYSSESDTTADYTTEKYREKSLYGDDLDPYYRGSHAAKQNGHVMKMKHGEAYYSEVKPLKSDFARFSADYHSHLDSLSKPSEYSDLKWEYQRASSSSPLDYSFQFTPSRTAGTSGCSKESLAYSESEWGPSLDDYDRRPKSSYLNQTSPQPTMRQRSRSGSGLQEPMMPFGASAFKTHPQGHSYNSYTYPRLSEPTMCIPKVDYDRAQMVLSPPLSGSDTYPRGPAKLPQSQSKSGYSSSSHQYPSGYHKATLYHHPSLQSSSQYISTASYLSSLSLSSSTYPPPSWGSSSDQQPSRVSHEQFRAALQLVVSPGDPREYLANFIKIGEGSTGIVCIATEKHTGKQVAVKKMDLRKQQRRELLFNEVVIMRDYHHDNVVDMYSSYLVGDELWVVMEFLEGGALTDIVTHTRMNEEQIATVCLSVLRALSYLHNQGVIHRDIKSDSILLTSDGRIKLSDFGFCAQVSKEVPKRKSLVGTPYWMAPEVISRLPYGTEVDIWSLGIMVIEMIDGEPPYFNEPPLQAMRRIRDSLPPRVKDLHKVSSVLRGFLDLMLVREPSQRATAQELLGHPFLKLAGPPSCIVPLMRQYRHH
row,ΔTm [°C],Compound
1,0,COC1=C2C[C@@H](C)C[C@H](OC)[C@H](O)[C@@H](C)/C=C(\C)[C@H](OC(N)=O)[C@@H](OC)/C=C\C=C(/C)C(=O)NC(=CC1=O)C2=O
2,0,CCOc1cc(/C=C(\C#N)C(N)=O)cc(CSc2ccccc2)c1O
3,-0.2,Ic1cccc(CSc2nnc(-c3ccncc3)o2)c1

# Target: Dual specificity protein kinase CLK2 (Homo sapiens) (UniProt P49760)
row,ΔTm [°C],Compound
1,-0.1,COC1=C2C[C@@H](C)C[C@H](OC)[C@H](O)[C@@H](C)/C=C(\C)[C@H](OC(N)=O)[C@@H](OC)/C=C\C=C(/C)C(=O)NC(=CC1=O)C2=O
2,0.2,CCOc1cc(/C=C(\C#N)C(N)=O)cc(CSc2ccccc2)c1O
3,1.7,Ic1cccc(CSc2nnc(-c3ccncc3)o2)c1

# Target: T1, Myotonin-protein kinase (Homo sapiens) (UniProt Q09013)
# T1 sequence (whole entry): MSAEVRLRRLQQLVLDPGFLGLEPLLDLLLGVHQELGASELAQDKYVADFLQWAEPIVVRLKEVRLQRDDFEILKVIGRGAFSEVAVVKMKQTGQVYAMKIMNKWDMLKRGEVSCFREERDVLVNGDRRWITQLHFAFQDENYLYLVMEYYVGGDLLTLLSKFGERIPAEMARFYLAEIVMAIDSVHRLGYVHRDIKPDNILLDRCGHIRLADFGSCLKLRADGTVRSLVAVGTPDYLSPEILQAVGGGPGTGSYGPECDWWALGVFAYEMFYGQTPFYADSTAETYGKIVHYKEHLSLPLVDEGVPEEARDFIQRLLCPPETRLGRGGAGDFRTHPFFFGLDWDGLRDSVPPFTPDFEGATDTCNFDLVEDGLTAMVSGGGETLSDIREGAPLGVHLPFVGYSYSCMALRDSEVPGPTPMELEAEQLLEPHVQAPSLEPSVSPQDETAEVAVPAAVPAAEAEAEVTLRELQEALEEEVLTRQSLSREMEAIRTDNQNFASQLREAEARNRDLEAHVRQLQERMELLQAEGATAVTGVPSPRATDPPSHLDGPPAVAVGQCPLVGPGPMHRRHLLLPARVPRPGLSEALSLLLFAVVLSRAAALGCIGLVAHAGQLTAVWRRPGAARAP
row,ΔTm [°C],Compound
1,-0.3,COC1=C2C[C@@H](C)C[C@H](OC)[C@H](O)[C@@H](C)/C=C(\C)[C@H](OC(N)=O)[C@@H](OC)/C=C\C=C(/C)C(=O)NC(=CC1=O)C2=O
2,-0.5,CCOc1cc(/C=C(\C#N)C(N)=O)cc(CSc2ccccc2)c1O
3,-0.1,Ic1cccc(CSc2nnc(-c3ccncc3)o2)c1

# Target: T2, Serine/threonine-protein kinase VRK1 (Homo sapiens) (UniProt Q99986)
# T2 sequence (whole entry): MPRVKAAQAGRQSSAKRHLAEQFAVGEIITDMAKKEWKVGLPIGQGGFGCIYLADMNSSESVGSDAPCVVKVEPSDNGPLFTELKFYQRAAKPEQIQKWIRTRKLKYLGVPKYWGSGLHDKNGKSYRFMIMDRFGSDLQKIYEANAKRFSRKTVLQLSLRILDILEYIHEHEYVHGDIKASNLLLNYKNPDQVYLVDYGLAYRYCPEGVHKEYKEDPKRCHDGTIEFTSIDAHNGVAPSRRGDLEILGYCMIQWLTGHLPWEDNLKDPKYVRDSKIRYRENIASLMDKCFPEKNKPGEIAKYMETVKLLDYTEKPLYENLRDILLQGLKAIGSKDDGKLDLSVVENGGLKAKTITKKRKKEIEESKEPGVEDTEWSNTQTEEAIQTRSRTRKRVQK
row,ΔTm [°C],Compound
1,-0.1,COC1=C2C[C@@H](C)C[C@H](OC)[C@H](O)[C@@H](C)/C=C(\C)[C@H](OC(N)=O)[C@@H](OC)/C=C\C=C(/C)C(=O)NC(=CC1=O)C2=O
2,-0.1,CCOc1cc(/C=C(\C#N)C(N)=O)cc(CSc2ccccc2)c1O
3,-0.2,Ic1cccc(CSc2nnc(-c3ccncc3)o2)c1

# Target: Serine/threonine-protein kinase pim-3 (Homo sapiens) (UniProt Q86V86)
row,ΔTm [°C],Compound
1,0.5,COC1=C2C[C@@H](C)C[C@H](OC)[C@H](O)[C@@H](C)/C=C(\C)[C@H](OC(N)=O)[C@@H](OC)/C=C\C=C(/C)C(=O)NC(=CC1=O)C2=O
2,1.5,CCOc1cc(/C=C(\C#N)C(N)=O)cc(CSc2ccccc2)c1O
3,0.2,Ic1cccc(CSc2nnc(-c3ccncc3)o2)c1

# Target: Calcium/calmodulin-dependent protein kinase type II subunit gamma (Homo sapiens) (UniProt Q13555)
# Sequence (Q13555 whole entry): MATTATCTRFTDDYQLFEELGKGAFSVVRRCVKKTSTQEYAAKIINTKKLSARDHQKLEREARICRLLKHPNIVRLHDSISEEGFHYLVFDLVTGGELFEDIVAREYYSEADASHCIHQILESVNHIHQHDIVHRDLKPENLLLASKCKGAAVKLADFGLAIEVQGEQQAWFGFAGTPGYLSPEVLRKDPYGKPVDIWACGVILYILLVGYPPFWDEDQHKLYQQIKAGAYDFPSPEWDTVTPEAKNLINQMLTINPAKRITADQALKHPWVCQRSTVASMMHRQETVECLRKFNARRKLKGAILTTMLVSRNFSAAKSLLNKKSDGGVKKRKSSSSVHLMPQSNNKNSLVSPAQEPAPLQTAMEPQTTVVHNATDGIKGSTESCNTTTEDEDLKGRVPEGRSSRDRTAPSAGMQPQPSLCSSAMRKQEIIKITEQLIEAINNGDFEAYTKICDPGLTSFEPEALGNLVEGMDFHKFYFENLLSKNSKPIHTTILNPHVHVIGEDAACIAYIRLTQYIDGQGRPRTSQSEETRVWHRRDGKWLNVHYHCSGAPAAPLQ
row,ΔTm [°C],Compound
1,0.1,COC1=C2C[C@@H](C)C[C@H](OC)[C@H](O)[C@@H](C)/C=C(\C)[C@H](OC(N)=O)[C@@H](OC)/C=C\C=C(/C)C(=O)NC(=CC1=O)C2=O
2,-0.1,CCOc1cc(/C=C(\C#N)C(N)=O)cc(CSc2ccccc2)c1O
3,-0.1,Ic1cccc(CSc2nnc(-c3ccncc3)o2)c1

# Target: Serine/threonine-protein kinase 25 (Homo sapiens) (UniProt O00506)
# Sequence (O00506 whole entry, looked up): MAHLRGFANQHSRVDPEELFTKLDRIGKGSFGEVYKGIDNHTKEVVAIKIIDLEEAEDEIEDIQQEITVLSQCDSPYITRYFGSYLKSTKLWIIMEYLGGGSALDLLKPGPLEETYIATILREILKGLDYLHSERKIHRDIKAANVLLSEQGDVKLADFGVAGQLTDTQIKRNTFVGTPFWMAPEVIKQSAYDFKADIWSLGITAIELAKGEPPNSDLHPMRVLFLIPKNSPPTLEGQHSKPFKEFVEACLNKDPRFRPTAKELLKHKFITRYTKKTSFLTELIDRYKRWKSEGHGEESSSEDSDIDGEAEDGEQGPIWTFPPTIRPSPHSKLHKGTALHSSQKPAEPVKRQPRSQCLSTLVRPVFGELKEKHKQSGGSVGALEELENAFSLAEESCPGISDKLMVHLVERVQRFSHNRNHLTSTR
row,ΔTm [°C],Compound
1,-0.6,COC1=C2C[C@@H](C)C[C@H](OC)[C@H](O)[C@@H](C)/C=C(\C)[C@H](OC(N)=O)[C@@H](OC)/C=C\C=C(/C)C(=O)NC(=CC1=O)C2=O
2,0.6,CCOc1cc(/C=C(\C#N)C(N)=O)cc(CSc2ccccc2)c1O
3,-0.3,Ic1cccc(CSc2nnc(-c3ccncc3)o2)c1

# Target: T3, Serine/threonine-protein kinase 17A (Homo sapiens) (UniProt Q9UEE5)
# T3 sequence (whole entry): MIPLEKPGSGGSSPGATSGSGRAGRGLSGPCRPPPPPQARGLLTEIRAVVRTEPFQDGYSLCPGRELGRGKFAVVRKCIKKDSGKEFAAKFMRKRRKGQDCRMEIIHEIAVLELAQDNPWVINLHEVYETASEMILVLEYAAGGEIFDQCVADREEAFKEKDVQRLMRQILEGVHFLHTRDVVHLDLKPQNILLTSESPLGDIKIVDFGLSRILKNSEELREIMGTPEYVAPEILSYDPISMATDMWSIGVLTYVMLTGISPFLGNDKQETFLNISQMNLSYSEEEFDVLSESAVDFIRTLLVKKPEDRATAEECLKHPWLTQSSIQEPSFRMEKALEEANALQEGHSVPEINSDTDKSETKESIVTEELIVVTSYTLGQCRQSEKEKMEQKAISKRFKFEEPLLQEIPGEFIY
row,ΔTm [°C],Compound
1,0.3,COC1=C2C[C@@H](C)C[C@H](OC)[C@H](O)[C@@H](C)/C=C(\C)[C@H](OC(N)=O)[C@@H](OC)/C=C\C=C(/C)C(=O)NC(=CC1=O)C2=O
2,0.6,CCOc1cc(/C=C(\C#N)C(N)=O)cc(CSc2ccccc2)c1O
3,0.3,Ic1cccc(CSc2nnc(-c3ccncc3)o2)c1

# Target: Serine/threonine-protein kinase pim-1 (Homo sapiens) (UniProt P11309)
# Sequence (P11309 whole entry, looked up): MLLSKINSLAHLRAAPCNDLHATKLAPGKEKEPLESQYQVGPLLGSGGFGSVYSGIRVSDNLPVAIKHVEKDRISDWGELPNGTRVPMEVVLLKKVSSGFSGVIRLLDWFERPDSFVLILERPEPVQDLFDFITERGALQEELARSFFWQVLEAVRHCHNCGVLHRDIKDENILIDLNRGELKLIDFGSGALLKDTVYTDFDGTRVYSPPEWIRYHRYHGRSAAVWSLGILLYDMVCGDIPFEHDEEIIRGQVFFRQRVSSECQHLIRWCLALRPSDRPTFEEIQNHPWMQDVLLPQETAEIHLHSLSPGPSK
row,ΔTm [°C],Compound
1,-0.2,COC1=C2C[C@@H](C)C[C@H](OC)[C@H](O)[C@@H](C)/C=C(\C)[C@H](OC(N)=O)[C@@H](OC)/C=C\C=C(/C)C(=O)NC(=CC1=O)C2=O
2,-0.1,CCOc1cc(/C=C(\C#N)C(N)=O)cc(CSc2ccccc2)c1O
3,-1.5,Ic1cccc(CSc2nnc(-c3ccncc3)o2)c1

# Target: Serine/threonine-protein kinase pim-2 (Homo sapiens, UniProt Q9P1W9)
# Sequence (Q9P1W9 whole entry, looked up): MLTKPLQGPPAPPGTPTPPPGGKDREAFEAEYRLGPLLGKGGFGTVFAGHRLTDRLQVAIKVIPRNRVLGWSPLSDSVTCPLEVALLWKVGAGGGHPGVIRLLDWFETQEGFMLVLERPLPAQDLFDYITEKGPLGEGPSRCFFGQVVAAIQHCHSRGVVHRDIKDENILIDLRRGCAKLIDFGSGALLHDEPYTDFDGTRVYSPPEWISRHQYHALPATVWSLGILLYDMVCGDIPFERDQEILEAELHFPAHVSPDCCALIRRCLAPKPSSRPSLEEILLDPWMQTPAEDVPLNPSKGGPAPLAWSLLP
row,ΔTm [°C],Compound
1,-0.1,COC1=C2C[C@@H](C)C[C@H](OC)[C@H](O)[C@@H](C)/C=C(\C)[C@H](OC(N)=O)[C@@H](OC)/C=C\C=C(/C)C(=O)NC(=CC1=O)C2=O
2,0.1,CCOc1cc(/C=C(\C#N)C(N)=O)cc(CSc2ccccc2)c1O
3,0.1,Ic1cccc(CSc2nnc(-c3ccncc3)o2)c1

# Target: Ribosomal protein S6 kinase alpha-3 (Homo sapiens) (UniProt P51812)
row,ΔTm [°C],Compound
1,-0.3,COC1=C2C[C@@H](C)C[C@H](OC)[C@H](O)[C@@H](C)/C=C(\C)[C@H](OC(N)=O)[C@@H](OC)/C=C\C=C(/C)C(=O)NC(=CC1=O)C2=O
2,0.1,CCOc1cc(/C=C(\C#N)C(N)=O)cc(CSc2ccccc2)c1O
3,0,Ic1cccc(CSc2nnc(-c3ccncc3)o2)c1

# Target: Calcium/calmodulin-dependent protein kinase type II subunit delta (Homo sapiens) (UniProt Q13557)
# Sequence (Q13557 whole entry): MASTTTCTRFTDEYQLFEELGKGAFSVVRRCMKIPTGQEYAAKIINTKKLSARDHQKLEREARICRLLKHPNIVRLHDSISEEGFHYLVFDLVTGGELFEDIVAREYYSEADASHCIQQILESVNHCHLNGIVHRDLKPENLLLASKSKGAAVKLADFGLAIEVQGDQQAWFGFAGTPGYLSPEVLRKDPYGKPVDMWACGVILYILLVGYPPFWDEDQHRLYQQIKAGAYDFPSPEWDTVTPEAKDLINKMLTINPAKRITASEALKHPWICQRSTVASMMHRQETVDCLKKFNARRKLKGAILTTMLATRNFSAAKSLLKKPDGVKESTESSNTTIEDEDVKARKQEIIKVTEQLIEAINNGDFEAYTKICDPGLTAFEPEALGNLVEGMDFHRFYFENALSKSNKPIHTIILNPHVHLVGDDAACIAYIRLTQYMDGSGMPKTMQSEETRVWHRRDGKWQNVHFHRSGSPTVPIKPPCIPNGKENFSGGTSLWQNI
row,ΔTm [°C],Compound
1,-0.5,COC1=C2C[C@@H](C)C[C@H](OC)[C@H](O)[C@@H](C)/C=C(\C)[C@H](OC(N)=O)[C@@H](OC)/C=C\C=C(/C)C(=O)NC(=CC1=O)C2=O
2,-0.2,CCOc1cc(/C=C(\C#N)C(N)=O)cc(CSc2ccccc2)c1O
3,-0.2,Ic1cccc(CSc2nnc(-c3ccncc3)o2)c1

# Target: Calcium/calmodulin-dependent protein kinase type 1D (Homo sapiens) (UniProt Q8IU85)
# Sequence (Q8IU85 whole entry, looked up): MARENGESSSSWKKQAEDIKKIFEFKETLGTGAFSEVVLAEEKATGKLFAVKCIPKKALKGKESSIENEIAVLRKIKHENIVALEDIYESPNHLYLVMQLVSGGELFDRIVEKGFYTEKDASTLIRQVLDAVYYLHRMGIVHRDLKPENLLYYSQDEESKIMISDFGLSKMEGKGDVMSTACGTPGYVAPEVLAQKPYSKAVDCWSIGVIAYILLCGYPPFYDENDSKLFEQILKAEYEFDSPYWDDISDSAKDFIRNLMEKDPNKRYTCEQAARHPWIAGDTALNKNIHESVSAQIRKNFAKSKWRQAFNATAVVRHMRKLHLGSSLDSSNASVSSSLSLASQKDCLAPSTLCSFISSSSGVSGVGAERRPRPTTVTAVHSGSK
row,ΔTm [°C],Compound
1,0.1,COC1=C2C[C@@H](C)C[C@H](OC)[C@H](O)[C@@H](C)/C=C(\C)[C@H](OC(N)=O)[C@@H](OC)/C=C\C=C(/C)C(=O)NC(=CC1=O)C2=O
2,-0.2,CCOc1cc(/C=C(\C#N)C(N)=O)cc(CSc2ccccc2)c1O
3,-0.3,Ic1cccc(CSc2nnc(-c3ccncc3)o2)c1

# Target: Death-associated protein kinase 3 (Homo sapiens) (UniProt O43293)
# Sequence (O43293 whole entry, looked up): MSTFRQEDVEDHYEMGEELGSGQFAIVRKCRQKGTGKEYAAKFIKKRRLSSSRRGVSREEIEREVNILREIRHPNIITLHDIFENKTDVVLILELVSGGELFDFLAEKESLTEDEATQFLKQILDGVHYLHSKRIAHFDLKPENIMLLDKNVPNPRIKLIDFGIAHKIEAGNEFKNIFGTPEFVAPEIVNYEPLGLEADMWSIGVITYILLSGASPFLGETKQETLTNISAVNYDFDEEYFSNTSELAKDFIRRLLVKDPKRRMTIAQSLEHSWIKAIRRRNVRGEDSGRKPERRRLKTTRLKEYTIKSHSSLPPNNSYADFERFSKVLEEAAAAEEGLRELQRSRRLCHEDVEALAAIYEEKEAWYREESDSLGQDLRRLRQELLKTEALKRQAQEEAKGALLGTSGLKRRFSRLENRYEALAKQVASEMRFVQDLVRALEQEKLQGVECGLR
row,Compound,ΔTm [°C]
1,COC1=C2C[C@@H](C)C[C@H](OC)[C@H](O)[C@@H](C)/C=C(\C)[C@H](OC(N)=O)[C@@H](OC)/C=C\C=C(/C)C(=O)NC(=CC1=O)C2=O,-0.6
2,CCOc1cc(/C=C(\C#N)C(N)=O)cc(CSc2ccccc2)c1O,0.1
3,Ic1cccc(CSc2nnc(-c3ccncc3)o2)c1,0.2

# Target: Dual specificity mitogen-activated protein kinase kinase 2 (Homo sapiens, UniProt P36507)
row,ΔTm [°C],Compound
1,-0.5,COC1=C2C[C@@H](C)C[C@H](OC)[C@H](O)[C@@H](C)/C=C(\C)[C@H](OC(N)=O)[C@@H](OC)/C=C\C=C(/C)C(=O)NC(=CC1=O)C2=O
2,0.4,CCOc1cc(/C=C(\C#N)C(N)=O)cc(CSc2ccccc2)c1O
3,-0.8,Ic1cccc(CSc2nnc(-c3ccncc3)o2)c1

# Target: Cyclin-dependent kinase 2 (Homo sapiens, UniProt P24941)
row,ΔTm [°C],Compound
1,0.5,COC1=C2C[C@@H](C)C[C@H](OC)[C@H](O)[C@@H](C)/C=C(\C)[C@H](OC(N)=O)[C@@H](OC)/C=C\C=C(/C)C(=O)NC(=CC1=O)C2=O
2,0.8,CCOc1cc(/C=C(\C#N)C(N)=O)cc(CSc2ccccc2)c1O
3,-0.3,Ic1cccc(CSc2nnc(-c3ccncc3)o2)c1

# Target: T4, Lymphokine-activated killer T-cell-originated protein kinase (Homo sapiens) (UniProt Q96KB5)
# T4 sequence (whole entry): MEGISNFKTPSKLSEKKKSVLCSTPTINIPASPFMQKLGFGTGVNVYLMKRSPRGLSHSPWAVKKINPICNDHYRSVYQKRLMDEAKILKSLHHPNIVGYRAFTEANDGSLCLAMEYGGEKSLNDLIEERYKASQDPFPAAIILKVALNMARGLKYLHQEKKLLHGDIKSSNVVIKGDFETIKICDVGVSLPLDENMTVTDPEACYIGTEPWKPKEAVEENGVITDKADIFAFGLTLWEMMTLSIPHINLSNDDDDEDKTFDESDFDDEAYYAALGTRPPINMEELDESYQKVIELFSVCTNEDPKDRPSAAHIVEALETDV
row,Compound,ΔTm [°C]
1,COC1=C2C[C@@H](C)C[C@H](OC)[C@H](O)[C@@H](C)/C=C(\C)[C@H](OC(N)=O)[C@@H](OC)/C=C\C=C(/C)C(=O)NC(=CC1=O)C2=O,0.6
2,CCOc1cc(/C=C(\C#N)C(N)=O)cc(CSc2ccccc2)c1O,0.5
3,Ic1cccc(CSc2nnc(-c3ccncc3)o2)c1,0.3

# Reference: ChEMBL document CHEMBL1145498, “A systematic interaction map of validated kinase inhibitors with Ser/Thr kinases” (Proc Natl Acad Sci U S A, 2007)
